In this assay the target is SGK1 (human) (UniProt O00141). In words: Flashplate.
Sequence of SGK1 (human) (O00141 whole entry, looked up): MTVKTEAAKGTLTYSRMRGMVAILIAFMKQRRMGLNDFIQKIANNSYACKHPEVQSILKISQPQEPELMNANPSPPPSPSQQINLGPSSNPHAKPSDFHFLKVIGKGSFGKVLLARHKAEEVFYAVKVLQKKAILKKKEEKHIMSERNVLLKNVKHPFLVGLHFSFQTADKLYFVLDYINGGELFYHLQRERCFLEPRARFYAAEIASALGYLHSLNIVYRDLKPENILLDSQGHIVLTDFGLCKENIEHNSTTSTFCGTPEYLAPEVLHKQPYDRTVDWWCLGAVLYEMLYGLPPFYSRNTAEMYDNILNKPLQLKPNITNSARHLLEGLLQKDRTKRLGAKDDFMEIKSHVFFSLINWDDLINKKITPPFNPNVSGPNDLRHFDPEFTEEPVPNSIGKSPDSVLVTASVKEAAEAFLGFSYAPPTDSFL
As for `COc1cc(C(=O)O)c(Cl)cc1NC(=O)Nc1cnc(C#N)cn1`, the Ki (commonly a measure of affinity in units of concentration, obtained from inhibition or displacement) is greater than 10 µM.
Turning to `Cc1cccc(NC(=O)Nc2ccc(-c3cccc4[nH]ncc34)cc2)c1`, the Ki stood at 2 µM.
Then `COc1cc(-c2ccc3c(c2)Nc2ccc([N+](=O)[O-])cc2NC3=O)ccc1O`, with greater than 10 µM.
In the case of `Cc1cccc(NC(=O)Nc2ccc(NC(=O)c3csc4ncnc(N)c34)cc2)c1` it was 6.31 µM.
In turn, `CCOc1nc(C(=O)NCc2ccc(S(N)(=O)=O)cc2)cc(N)c1C#N` showed a Ki greater than 10 µM.
Regarding `Cc1cccc(NC(=O)Nc2ccc(-c3csc4c(C#CCNS(C)(=O)=O)cnc(N)c34)cc2)c1`, the inhibition constant (Ki) is 10 µM.
`COc1cncc(/C=C/c2ccncc2)c1` yielded a Ki greater than 10 µM.
`CC(C)(CO)CNc1nccc(-c2c(-c3ccc(F)cc3)nc3cnccn23)n1`: the Ki was greater than 10 µM.
On to `Cc1ccc(C(=O)Nc2c(C(N)=O)sc3ccc(Cl)c(Cl)c23)cc1`, for which the inhibitory constant (Ki) is 3.16 µM.
For `O=C(O)c1ccccc1Nc1ccnc(Nc2ccc3[nH]ncc3c2)n1`, the Ki is 0.501 µM.
The compound `O=c1c(NCc2ccccc2F)c(Nc2ccncc2)c1=O` registered a Ki of 0.794 µM.
Compound `O=C(O)c1c2c(nc3ccccc13)C(=C1CCCC1)CC2` displayed a Ki greater than 10 µM.
In the case of `Cc1n[nH]c2cnc(-c3cncc(OC[C@@H](N)Cc4cccc(C(F)(F)F)c4)c3)cc12`, the Ki was 0.0631 µM.
`O=c1[nH]c2sc3c(c2c2nc(-c4ccccc4)nn12)CCCC3` registered a Ki greater than 10 µM.
The compound `CCCOc1cccc([C@@H](C)NC(=O)c2ccc(-c3ccncc3)cc2)c1` returned an inhibition constant (Ki) of 3.98 µM.
With `CCN(CC)CCNC(=O)/C=C/c1cnc(N)c2c(-c3ccc(NC(=O)Nc4cccc(C)c4)cc3)csc12`, the Ki turned out to be 2 µM.
Take `COc1cc2c(cc1F)C(c1ccccc1Cl)=Nc1c(n[nH]c1C)N2`: the inhibition constant Ki was determined as 7.94 µM.
As to `CCCC(=O)Nc1n[nH]c2ccc(-c3nnn(Cc4ccccc4)c3-c3ccccc3)cc12`, the Ki came out at 1.58 µM.
`CNC(=O)c1cnc(N)c2c(-c3ccc(NC(=O)Nc4cc(C)ccc4F)cc3)csc12`: the Ki was found to be 5.01 µM. Against the preceding compound, the Ki is about 3.2-fold higher.
Then `O=c1[nH]cnc2c1oc1ccc(Cl)cc12`, with greater than 10 µM; and `OCCNc1cc2cc(-c3ccccc3)ccc2cn1`, with greater than 10 µM.
As for `CN1CCN(CCCNc2cccc(-c3nc4c(C(N)=O)cccc4[nH]3)n2)CC1`, the Ki was greater than 10 µM.
Then `O=C(Nc1cnccn1)Nc1ccnc2c(F)cccc12`, with greater than 10 µM; and `NC(=O)Cn1cc(-c2cc(-c3cc4ccccc4s3)c3[nH]ncc3c2)c2nc(N)ncc21`, with greater than 10 µM.
On to `COc1ccc(/C=C2/C(=O)ON=C2c2ccc(Br)cc2)cc1OC`, for which the Ki was greater than 10 µM.
Compound `Cc1cccc(NC(=O)Nc2ccc(-c3cccc(C(N)=O)c3)cc2)c1` returned a Ki greater than 10 µM.
Compound `Nc1ncnn2ccc(C(=O)Nc3ccc(NC(=O)Nc4cccc(F)c4)cc3)c12` registered an inhibitory constant (Ki) greater than 10 µM.
Take `COc1cc2c(N3CCN(C(=O)Nc4ccc(OC(C)C)cc4)CC3)ncnc2cc1OCCCN1CCCCC1`: the Ki is greater than 7.94 µM.
In the case of `CCCn1c(C2CCNCC2)nc(-c2ccc(Cl)c(Cl)c2)c1-c1ccnc(NC2CCCCC2)n1`, the Ki was determined as 3.16 µM. This lies in the single-digit micromolar range.
Take `O=C(Nc1n[nH]c2ccc(-c3cn(Cc4ccccc4)nn3)cc12)c1ccccc1`: the inhibitory constant (Ki) amounted to 0.0631 µM.
With `NC(=O)c1sc2c(Br)ccc(Cl)c2c1N`, the Ki came out at 3.16 µM.
In turn, `O=C(NNC(=S)Nc1ccc(Cl)cc1)C(O)(c1ccccc1)c1ccccc1` displayed a Ki greater than 10 µM.
Compound `Cc1cc(C)cc(NC(=O)Nc2ccc(-c3cccc4snc(N)c34)cc2)c1` returned a Ki greater than 10 µM.
In the case of `Cc1c(C)n(Cc2ccccc2)c2ccc(C(=O)Nc3nc[nH]n3)cc12` it was greater than 10 µM.
As for `O=C(Nc1cnc2[nH]cc(-c3ccccc3)c2c1)c1cccc(F)c1F`, the Ki is 7.94 µM. That is a single-digit micromolar value.
`N[C@H](COc1cncc(-c2cc3cnccc3s2)c1)Cc1c[nH]c2ccccc12` showed a Ki of 1 µM.
With `COc1ccc(CNc2c(Nc3ccncc3)c(=O)c2=O)c(OC)c1`, the Ki is greater than 10 µM.
In the case of `CN1CCC(NC(=O)c2cc3c(-c4ccccc4)n[nH]c3s2)CC1`, the Ki amounted to 6.31 µM. That is a single-digit micromolar value.

Source of the values: the kinase profiling compilation of Christmann-Franck et al. (2016).
